Source: patent US20240239775A1, “FXR REGULATOR, PREPARATION METHOD THEREFOR, PHARMACEUTICAL COMPOSITION THEREOF AND USE THEREOF” (QINGDAO RUIJI MEDICAL TECHNOLOGY CO., LTD., priority 2021, published 2024)

Tests used:
FXR = target: T1, FXR (Homo sapiens, UniProt Q96RI1); assay: FXR antagonist screening by TR-FRET (LanthaScreen TR-FRET FXR co-activation assay kit); assay type: biochemical; details: Table 1.1, FXR antagonistic activity; TR-FRET with CDCA; geometric means of at least two independent runs
T1 construct: 5 μL of 20 nM FXR-LBD Complete Coregulator buffer G; purchased ThermoFisher PV4833
T1 sequence (Q96RI1 262-486 limits assumed): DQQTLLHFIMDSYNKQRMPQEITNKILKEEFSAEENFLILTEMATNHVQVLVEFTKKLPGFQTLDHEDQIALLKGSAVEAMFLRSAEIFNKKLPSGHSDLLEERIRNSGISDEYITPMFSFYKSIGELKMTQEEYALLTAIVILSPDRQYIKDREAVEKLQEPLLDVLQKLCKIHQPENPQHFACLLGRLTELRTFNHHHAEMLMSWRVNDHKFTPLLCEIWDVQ
In short: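 FXR-LBD (20 nM working solution) mixed with compound, CDCA (200 μM working solution) as agonist, Fluorescein-SRC2-2 and Tb-anti-GST antibody in Coregulator buffer G; 10 h at room temperature. Coactivator recruitment read by TR-FRET, triplicate wells.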

[1] = Cell proliferation inhibition (cytotoxicity) by MTT assay, HepG2; assay type: cell-based; details: human, HepG2 cells, 48 hours after administration, average of three independent repeated experiments
Protocol: The human liver cancer cell line HepG2 was subcultured in a DMEM medium containing penicillin (final concentration: 100 U/mL), streptomycin (final concentration: 100 μg/mL) and 10% FBS under the same conditions as those in the subculture of HEK293A.
(§1) The cell proliferation inhibition ability of compounds was tested by MTT assay. HepG2 and HEK293 cells were inoculated in a 96-well plate at a density of 30%. After incubation for 18 h to allow the cells to adhere, the original culture medium was removed, a given concentration of the compound to be tested was added to each well, and an equal amount of DMSO was added to the control group. Three replicate wells were set up for each compound. 48 hours after administration, cell viability was tested by MTT assay. The blank group was the wells where no cells were added, and then its OD value was read at 490 nm with a microplate reader. Calculation formula for cell viability: cell viability (%)=(ODto be tested−ODblank)/(ODcontrol−ODblank)×100.

HepG2 cells = assay: Testing of TC/TG in HepG2 cells incubated with FFA (oleic acid and palmitate); assay type: cell-based, human; details: 24 h
Protocol: Cell TC/TG was tested using Nanjing Jiancheng TG test kit and TC test kit. HepG2 cells were incubated with 0.5 mmol/L FFA (oleic acid and palmitate mixed at a ratio of 2:1) and a solvent or different concentrations (20 μM, 40 μM, 80 μM) of compounds for 24 h. The culture medium was discarded and the cells were washed once with 0.01 M PBS (pH 7.4). The cells were scraped off with a cell scraper. 2-5 mL of 0.01 M PBS (pH 7.4) was then added. The cell suspension was collected and then centrifuged at 1000×g, 4° C. for 10 min. According to the ratio of 10^6 cells/300-500 μL of homogenization medium, isopropyl alcohol was added for mechanical homogenization, such that the cells were thoroughly disrupted until there was no obvious cell precipitation. The cell solution was centrifuged at 10000×g, 4° C. for 10 min. The supernatant was taken and placed on ice for testing. 2.5 μL of distilled water, standard products or samples were well mixed with […] respectively. After incubation at 37° C. for 10 min, the absorbance value of each well was tested with a microplate reader at 510 nm. Calculation formula for TC/TG concentration: sample concentration (mmol/g protein)=(ODsample−ODblank)/(ODstandard−ODblank)×standard product concentration (mmol/L)/protein concentration (g protein/L).
Preparation of protein standard: a. 1.2 mL of standard protein solution was added to a tube of protein standard (30 mg BSA), and a 25 mg/mL standard protein solution was obtained after the protein standard was thoroughly dissolved. b. An appropriate amount of 25 mg/mL protein standard was diluted to the final concentration of 0.5 mg/mL. Preparation of BCA working solution: according to the number of samples, reagent A for the BCA working solution and reagent B for BCA working solution (v/v: 50:1) were well mixed to prepare an appropriate amount of BCA working solution. Determination of protein concentration: a. 0, 1, 2, 4, 8, 12, 16, and 20 μL of the protein standard were respectively added into the standard wells of the 96-well plate, and the diluted standard solution was then added to make up to 20 μL, which is equivalent to obtaining standard concentrations of 0, 0.025, 0.05, 0.1, 0.2, 0.3, 0.4, and 0.5 mg/mL, respectively. b. An appropriate volume of sample was added to the sample wells of the 96-well plate. If the sample is less than 20 μL, the diluted standard solution should be added to make up to 20 μL. c. […] was added to each well and the well plate was set still at 37° C. for 20-30 min. d. The absorbance at A562 nm was determined with a microplate reader. e. The protein concentrations of the samples were calculated according to the standard curves and the sample volumes used.

[2] = Cell proliferation inhibition (cytotoxicity) by MTT assay, HEK293A; assay type: cell-based; details: human, HEK293A cells, 48 hours after administration, average of three independent repeated experiments
Protocol: The human embryonic kidney cell line HEK293A was subcultured in a medium containing penicillin (final concentration: 100 U/mL), streptomycin (final concentration: 100 μg/mL) and 10% FBS, in a humidified atmosphere of 95% air and 5% carbon dioxide at a constant temperature of 37° C. When the cells were 90% confluent, the old culture medium was discarded and the cells were washed twice with 2 mL of PBS. After the PBS was discarded, 2 mL of 0.25% trypsin-0.25% EDTA mixed digestion solution was added. When it was observed under a microscope that the cells became round, 2 mL of complete culture medium was added quickly to stop the digestion. The cell solution was pipetted gently to collect cells. The cells were centrifuged at 800 rpm, 4° C. for 5 min, the supernatant was discarded, the cells were resuspended in complete culture medium and cultured in bottles, and the medium was changed every other day.
as §1

SMILES	IC50 (FXR)	CC50 at 48 h [1]	reduction of the increase in TG level of HepG2 cell induced by oleic acid and palmitate (HepG2 cells; 20 μM compound, 0.5 mmol/L FFA, FIG. 1A)	reduction of the increase in TC level of HepG2 cell induced by oleic acid and palmitate (HepG2 cells; 20 μM compound, 0.5 mmol/L FFA, FIG. 1B)	inhibitory effect on TC, dose dependence (HepG2 cells; HepG2, 20 μM, 40 μM, 80 μM)	inhibitory effect on TG, dose dependence (HepG2 cells; HepG2, 20 μM, 40 μM, 80 μM)	CC50 at 48 h [2]	melting point
Cc1c(C(=O)O)oc2ccc(S(=O)(=O)N(CCc3ccccc3)c3ccccc3N3CCN(C(=O)c4ccccc4)CC3)cc12 [Example F27-S96]	0.1 to 10 µM	> 160 µM	significantly reduce	significantly reduce	dose-dependent to some extent	dose-dependent to some extent	> 160 µM	128 to 129 °C
Cc1c(C(=O)O)oc2ccc(S(=O)(=O)N(CCc3ccccc3)Cc3ccccc3N3CCN(C(=O)N(C)C)CC3)cc12 [Example F27-S101, 3-methyl-5-(N-(2-(4-(dimethylcarbamoyl)piperazin-1-yl)benzyl)-N-phenethylsulfamoyl)benzofuran-2-carboxylic acid]	0.1 to 10 µM	> 160 µM	–	–	–	–	> 160 µM	118 to 119 °C
